Assay results from patent US9399031B2, “Combined use of amides of mono- and dicarboxylic acids and silymarin in the treatment of renal diseases” (Epitech Group S.r.l., priority 2013, dated 2016).

Tests used:
[1] = system: dismetabolic neuropathies; conditions: animal model of diabetes by streptozotocin; cited from earlier work
[2] = system: renal ischemia/reperfusion; assay: Experimental renal ischemia/reperfusion model; assay type: in vivo; conditions: mice, bilateral renal ischemia 30 minutes, 6 hours post-reperfusion; compared to the carrier alone; FIGS. 1 and 2
Protocol: After being anesthesized with sodium pentobarbital (50 mg/kg i.p.), mice were placed on a heated mat to keep their body temperature at 37° C. during surgery. After a laparatomy, mice were subjected to bilateral renal ischemia during 30 minutes, during which renal arteries and veins were occluded by microaneurysm clamps. The ischemia time selected was based on the time capable of maximizing the reproducibility of the renal function unbalance, while minimizing animal death. After removing renal clamps, kidneys were observed during additional 5 minutes to confirm complete reperfusion, and subsequently 1 ml saline was injected into the abdomen and incision was sutured. […] All plasma samples were analyzed for assessing the biochemical parameters within 24 hours post-withdrawal. Plasma concentrations of urea and creatinine were measured as indicators of the impaired glomerular function. […] Absorbance change rate was spectrometrically measured at 650 nm. […] Determination of Malondialdehyde Levels Malondialdehyde (MDA) levels in kidneys were determined as an indicator of lipid peroxidation. […] Supernatant absorbance was spectrometrically measured at 532 nm. MDA levels were expressed as μM/100 mg wet tissue. […] Total scoring for each kidney was calculated by the sum of all the 100 scores, with a maximum score of 300. […]

CCCCCCCCCCCCCCCC(=O)NCCO [PEA, Palmitoylethanolamide]
allodynia [1]: suppresses allodynia
blood insulin levels [1]: increase in blood insulin levels
body weight [1]: partial body weight recovery
functional and tissue parameters for kidneys (plasma AST, γGT, creatinine, urea; MDA levels, MPO renal activity, histologic assessment) [2]: neither Silymarin alone nor PEA alone, when used at the same doses as in the combination, showed an improvement effect
